Consider 2 compounds from US20030236202A1, “Natural products and derivatives thereof for protection against neurodegenerative diseases” (priority 2002, published 2003).

Broadly, the IC50 is the concentration that gives 50% inhibition.

Series [1] in a line: Total antioxidant capacity of cerebrospinal fluid after oral administration. The format is in vivo. As to conditions: rat, 100 mg oral, after 15 min. The method, then: Several rats were given 100 mg hydroxytyrosol by oral administration. After 15 min a small amount of cerebrospinal fluid was taken from the rat and analysed for the presence of hydroxytyrosol. Also the total antioxidant capacity in this fluid was measured and compared with a control. The detection of hydroxytyrosol was accomplished by gas chromatography and concentrations were determined by a standard curve. Hydroxytyrosol reached a concentration between 0.1 and 0.2 mM in cerebrospinal fluid after 15 minutes of oral administration. Moreover, the total antioxidant capacity of cerebrospinal fluid increased by 35% under these conditions as compared to a control.

Series [2] concerns the target T1, monoamine oxidase B (MAO-B) (Rattus norvegicus, UniProt P19643).
T1 construct: MAO-B enzyme activities were measured using purified mitochondria from rat brain tissue; from tissue; host or cells: purified mitochondria from rat brain tissue
T1 sequence (P19643 1-520): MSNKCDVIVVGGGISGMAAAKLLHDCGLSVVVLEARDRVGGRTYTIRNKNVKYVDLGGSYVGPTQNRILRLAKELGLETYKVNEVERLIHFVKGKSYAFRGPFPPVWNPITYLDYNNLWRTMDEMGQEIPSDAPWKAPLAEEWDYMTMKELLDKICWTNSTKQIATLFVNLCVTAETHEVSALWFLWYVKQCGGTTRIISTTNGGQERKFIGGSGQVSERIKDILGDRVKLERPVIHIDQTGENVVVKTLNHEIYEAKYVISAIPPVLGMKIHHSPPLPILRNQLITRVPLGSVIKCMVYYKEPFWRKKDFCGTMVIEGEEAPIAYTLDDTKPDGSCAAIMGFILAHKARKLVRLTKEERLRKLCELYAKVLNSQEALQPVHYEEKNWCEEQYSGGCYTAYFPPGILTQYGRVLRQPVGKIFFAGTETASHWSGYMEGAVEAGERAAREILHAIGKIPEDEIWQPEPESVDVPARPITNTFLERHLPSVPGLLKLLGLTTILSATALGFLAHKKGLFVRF
Put plainly: Monoamine oxidase inhibition, purified mitochondria from rat brain tissue. Type of series: biochemical. As to conditions: benzylamine (300 μM) as substrate. The method, then:
We determined the IC50 of hydroxytyrosol for monoamine oxidase B (MAO-B). Therefore, MAO-B enzyme activities were measured using purified mitochondria from rat brain tissue as described previously (Holt et al. Anal. Biochem. 1997, 244, 384-392). Benzylamine (300 μM) was used as a substrate for MAO-B and the IC50 was calculated by adding different amounts of hydroxytyrosol to the enzyme assay.

Series [3] has as its system Beta-amyloid peptide (1-40). As to the kind of experiment: Prevention of metal-induced beta-amyloid precipitation (turbidometric assay). Conditions: 25 μM compound, 10 μM beta-amyloid (1-40). The method, then:
Therefore, an experiment was performed to study its capacity to solubilize beta-amyloid peptide from insoluble aggregates. Beta-amyloid peptide (1-40) was brought to 10 μM in 150 mM NaCl, 50 mM HEPES (pH 7.4), and mixed with 10 μM CuCl2 or 10 μM FeCl3. Precipitation of beta-amyloid peptide by copper and iron was measured by a turbidometric assay (Huang et al. J. Biol. Chem. 1997, 272(42), 26464-70). Copper- and iron-induced turbidity was almost completely abolished (>90%) by the presence of 25 μM hydroxytyrosol.

In series [4] the test system is primary hippocampal cultures from rat. As to the kind of experiment: Neuroprotection: rescue of neuronal cells from neurotoxin-induced apoptosis. Type of series: cell-based. Conditions: 50 μM. The method, then:
The capacity of two phenolic compounds to rescue neuronal cells from different kind of stressors was tested. To primary hippocampal cultures from rat, different neurotoxins (glutamate, hydrogen peroxide or beta-amyloid peptide) were added in such concentrations that in half of the cells apoptosis was induced. Then, together with the toxins, hydroxytyrosol or tyrosol were added in a final concentration of 50 μM, and the cells were incubated for 24 h. at 37° C. Subsequently, apoptosis was measured in the cell cultures and the number of cells that were protected by this treatment as compared to a control was calculated. […] Hydroxytyrosol protected around 60% of the cells against hydrogen peroxide, 35% against glutamate-induced neurotoxicity, and 45% against beta-amyloid induced apoptosis.

A short description of series [5]: Compound in cerebrospinal fluid of rats after oral administration (gas chromatography). The format is in vivo, rat. Conditions: rats which had received tyrosol orally.
Setting [6] is: 24 h at 37° C., toxin inducing apoptosis in half of the cells.

For the compound `OCCc1ccc(O)c(O)c1` [Hydroxytyrosol, 2-(3,4-dihydroxyphenyl) ethanol], the “Increase of total antioxidant capacity of cerebrospinal fluid as compared to a control” value in series [1] is 35%. This compound showed an IC50 in series [2] of 16.3 ± 1.3 µM. Further, the “Binding of iron, zinc and copper ions (in words)” value in the series “Binding of metal ions” is reported as “high affinity”. The same compound yielded a Copper-induced turbidity abolished in series [3] (10 μM CuCl2, pH 7.4) above 90%. In series [3] (10 μM FeCl3, pH 7.4), this compound yielded an Iron-induced turbidity abolished above 90%. In addition, in series [4] (setting [6]), the “Cells protected against beta-amyloid induced apoptosis” value is given as around 45%, the “Cells protected against glutamate-induced neurotoxicity” value was around 35% and the “Cells protected against hydrogen peroxide” value is “around 60%”.

Turning to `OCCc1ccc(O)cc1` [Tyrosol, 2-(4-hydroxyphenyl) ethanol], the “Tyrosol in cerebrospinal fluid (in words)” value in series [5] is given as “detected”. In addition, the “Protection of cells from dying (in words)” value in series [4] (24 h, glutamate, hydrogen peroxide or beta-amyloid peptide) was “protected part of the cells from dying”.
